Measured values: patent publication US20100311726A1, “REDUCTION OF BETA-AMYLOID LEVELS BY TREATMENT WITH THE SMALL MOLECULE DIFFERENTIATION-INDUCING FACTOR” (priority 2007, published 2010)
Entries after “also recorded” stand apart in the source; their conditions may differ.

Key:
[1] = test system: notch intracellular domain (NICD); assay: Notch intracellular domain (NICD) level; type: cell-based
[2] = test system: CHO cells; assay: Cell proliferation assay (haemocytometer counts); type: cell-based, Chinese Hamster
Text: (§1) For proliferation assays, 1×10^4 cells were deposited into 24-well plates and treated with vehicle (ethanol or DMSO) or with various amounts of DIF-1 or DIF-3 for a period of 4 days. Cells were harvested after each day by trypsin/EDTA treatment, stained with an equal volume of 0.05% Trypan blue and enumerated in triplicate twice using a haemocytometer. Dead cells are stained blue, but live cells with intact cell membranes are not coloured. Data represents the mean cell number±the standard deviation for at least 3 separate experiments.
We therefore assessed the dose-dependent anti-proliferative effect of DIF-1 on normal (non-transformed) CHO cells (FIG. 1A). Briefly, CHO cells were seeded on a 6-well plate (10,000 cells/well) and were incubated with 25 μM DIF-1. Cells were harvested by the trypsin/EDTA treatment at the times indicated and counted with a haemocytometer. […] Therefore, for this study we only analyzed the effect of DIF-1 between 18 and 20 hours.

[3] = test system: APP; assay: APP processing (mature APP, αCTF, βCTF) by western blot; type: cell-based, human
Method: Total protein was collected in RIPA buffer plus protease inhibitors on ice and briefly sonicated. They lysate was centrifuged at 14,000 rpm for 15 minutes. […] After washing, the blots were probed with a polyclonal HRP-tagged secondary Ab (1:5000) for 1 hour at room temperature then visualized.
A second possibility is that DIF-1 potentiates the activity of y-secretase and processing of αCTFs and βCTFs. To assess this latter possibility, we examined the effect of DIF-1 in the presence of DAPT, a potent γ-secretase inhibitor. Even numbers of CHO-7W cells were plated in 6-well dishes and allowed to grow overnight. The next day, the media was removed and replaced with control media (2 ml) or media containing DAPT, DIF-1 or DAPT and DIF-1. […] After washing, blots were probed with HRP-conjugated secondary antibodies (1:5000) for 1 hour at room temperature. […] It would appear that the mechanism of DIF-1 on APP metabolism is not likely to involve γ-secretase activity, but might impact on either BACE1 levels or activity.
To evaluate this probability, we treated CHO-CAB cells that overexpress human APP^751 and human BACE1 with 30 μM of DIF-1. More specifically, even numbers of CHO-CAB cells were plated in 6-well dishes and allowed to grow overnight. The next day, the media was removed and replaced with control media (2 ml) or media containing DAPT, DIF-1 or DAPT and DIF-1. […] After washing, blots were probed with HRP-conjugated secondary antibodies (1:5000) for 1 hour at room temperature. Each treatment is shown above the blot. […] It would appear that DIF-1 has a greater effect on APP maturation in CHO-CAB cells. Longer exposures reveal the presence of mature APP bands in DIF-1 treated cells.
Next dose-dependent effects of DIF-1 on APP processing were examined. Even numbers of CHO-CAB cells were plated in 6-well dishes and allowed to grow overnight. The next day, cells were treated overnight with either vehicle or increasing concentrations of DIF-1 (5-30 μM).

[4] = test system: CHO cells; assay: Cell viability (trypan blue exclusion) and apoptosis (caspase-3); type: cell-based
Text: as §1
Cells were harvested by the trypsin/EDTA treatment at the times indicated and counted with a haemocytometer.

## CCCCCC(=O)c1c(O)c(Cl)c(OC)c(Cl)c1O [DIF-1, 1-[3,5-dichloro-2,6-dihydroxy-4-methoxyphenyl]-1-hexanone]
[1]
  effect on notch intracellular domain (NICD): no effect
[2]; 25 μM, 24 hours
  inhibition of growth: minor, yet insignificant inhibition of growth
[2]; after 72 hours, all cell lines tested (e.g. CHO, N2a and SH-SY5Y)
  decrease in proliferation compared to control and vehicle treated cells: 70-75%
[2]; washing treated cells with PBS and fresh growth media
  reversibility of antiproliferative effect: readily reversed
[3]; CHO-7W, 30 μM DIF-1 alone
  APP maturation and αCTF and βCTF levels: significant decrease in APP maturation and both αCTF and βCTF production; also recorded: significant decreases in both αCTF and βCTF levels
[3]; CHO-7W, 30 μM DIF-1 plus 250 nM DAPT
  αCTF and βCTF levels, simultaneous treatment with DAPT: increased, but not to the level seen with DAPT alone
[3]; CHO-CAB, 30 μM
  effect on APP metabolism with BACE1 overexpression: did not repress the effects of DIF-1 on APP metabolism
[3]; CHO-CAB, 5-30 μM
  dose dependence of αCTF and βCTF reduction: reduced both αCTFs and βCTFs in a dose-dependent manner
[3]; CHO-CAB, 5-30 μM overnight
  concentration required to have an effect on mature APP levels: ~20 µM
[4]
  cell adhesion, cell shape, apoptosis (caspase-3 activation): did not effect cell adhesion, cell shape or induce apoptosis
[4]; any of the cell lines tested
  effect on cell viability (trypan blue exclusion): no observable effect on cell viability
